Holding throughout (assay): Ambit kinase profiling, competition binding
The target in one assay is T1, CAMKIγ (Homo sapiens, UniProt Q96NX5).
T1 construct: purchased Ambit Biosciences (KINOMEscan)
Particulars: for competition: CAMKIγ, 10 µM. As for the experimental part:
(§1) Also included in the kinase profile are four isoforms of PKC (δ, ε, η, θ) and eight isoforms of CAMKs (CAMKIα, δ, γ; CAMKIIα, β, δ, γ; CAMK4).
(§2) The global kinase profiling experiment was performed by Ambit Biosciences.

A further assay deals with T2, CSNK1D (Homo sapiens, UniProt P48730).
T2 construct: purchased Ambit Biosciences (KINOMEscan)
As for the experimental part:
as §1, §2

Another assay deals with T3, CSNK1E (Homo sapiens, UniProt P49674).
T3 construct: purchased Ambit Biosciences (KINOMEscan)
On the procedure:
as §1, §2

The target of another assay is T4, CSNK1G3 (Homo sapiens, UniProt Q9Y6M4).
T4 construct: purchased Ambit Biosciences (KINOMEscan)
The settings on record: for % Competition: 10 µM. As for the experimental part:
as §1, §2

A further assay has as its target T5, DYRK1B (Homo sapiens, UniProt Q9Y463).
T5 construct: purchased Ambit Biosciences (KINOMEscan)
On the procedure:
as §1, §2

A further assay has as its target T6, EPHB3 (Homo sapiens, UniProt P54753).
T6 construct: purchased Ambit Biosciences (KINOMEscan)
T6 sequence (P54753 34-998): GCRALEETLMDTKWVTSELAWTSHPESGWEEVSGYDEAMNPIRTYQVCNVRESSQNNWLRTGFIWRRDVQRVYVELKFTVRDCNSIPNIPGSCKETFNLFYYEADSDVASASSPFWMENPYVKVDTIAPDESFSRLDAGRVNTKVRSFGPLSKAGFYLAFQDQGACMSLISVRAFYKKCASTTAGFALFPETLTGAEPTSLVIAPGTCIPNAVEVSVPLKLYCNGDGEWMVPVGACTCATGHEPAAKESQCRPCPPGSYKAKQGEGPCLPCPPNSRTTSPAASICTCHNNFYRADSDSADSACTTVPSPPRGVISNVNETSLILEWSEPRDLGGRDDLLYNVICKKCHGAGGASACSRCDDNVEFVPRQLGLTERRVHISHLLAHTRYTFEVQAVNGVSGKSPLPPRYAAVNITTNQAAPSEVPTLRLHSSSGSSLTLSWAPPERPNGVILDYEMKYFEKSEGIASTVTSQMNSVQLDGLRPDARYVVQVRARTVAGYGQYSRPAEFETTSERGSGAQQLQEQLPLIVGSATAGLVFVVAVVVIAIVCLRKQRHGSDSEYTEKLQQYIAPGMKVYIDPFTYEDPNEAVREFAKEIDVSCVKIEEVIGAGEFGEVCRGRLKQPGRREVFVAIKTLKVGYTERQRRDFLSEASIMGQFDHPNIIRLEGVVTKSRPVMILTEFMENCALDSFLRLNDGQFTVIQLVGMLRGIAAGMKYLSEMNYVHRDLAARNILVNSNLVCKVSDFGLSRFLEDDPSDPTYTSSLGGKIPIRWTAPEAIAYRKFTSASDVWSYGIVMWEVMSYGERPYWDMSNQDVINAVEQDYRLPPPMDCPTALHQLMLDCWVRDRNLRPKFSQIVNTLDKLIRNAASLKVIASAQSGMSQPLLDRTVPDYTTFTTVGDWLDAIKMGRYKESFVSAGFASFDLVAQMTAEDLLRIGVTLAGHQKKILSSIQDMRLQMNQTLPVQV
On the procedure: as §1, §2

Another assay deals with T7, JNK1 (Homo sapiens, UniProt P45983).
T7 construct: purchased Ambit Biosciences (KINOMEscan)
Particulars: for % Competition: 10 µM. As for the experimental part: as §1, §2

In a further assay the target is T8, JNK2 (Homo sapiens, UniProt P45984).
T8 construct: purchased Ambit Biosciences (KINOMEscan)
The settings on record: for % Competition: 10 µM. As for the experimental part:
as §1, §2

In the next assay the target is T9, MRCKA (Homo sapiens, UniProt Q5VT25).
T9 construct: purchased Ambit Biosciences (KINOMEscan)
As for the experimental part:
as §1, §2

In a further assay the target is T10, PRKCQ (Homo sapiens, UniProt Q04759).
T10 construct: purchased Ambit Biosciences (KINOMEscan)
As for the experimental part: as §1, §2

For the next assay, the target named is T11, PRKD3 (Homo sapiens, UniProt O94806).
T11 construct: purchased Ambit Biosciences (KINOMEscan)
T11 sequence (O94806 1-890): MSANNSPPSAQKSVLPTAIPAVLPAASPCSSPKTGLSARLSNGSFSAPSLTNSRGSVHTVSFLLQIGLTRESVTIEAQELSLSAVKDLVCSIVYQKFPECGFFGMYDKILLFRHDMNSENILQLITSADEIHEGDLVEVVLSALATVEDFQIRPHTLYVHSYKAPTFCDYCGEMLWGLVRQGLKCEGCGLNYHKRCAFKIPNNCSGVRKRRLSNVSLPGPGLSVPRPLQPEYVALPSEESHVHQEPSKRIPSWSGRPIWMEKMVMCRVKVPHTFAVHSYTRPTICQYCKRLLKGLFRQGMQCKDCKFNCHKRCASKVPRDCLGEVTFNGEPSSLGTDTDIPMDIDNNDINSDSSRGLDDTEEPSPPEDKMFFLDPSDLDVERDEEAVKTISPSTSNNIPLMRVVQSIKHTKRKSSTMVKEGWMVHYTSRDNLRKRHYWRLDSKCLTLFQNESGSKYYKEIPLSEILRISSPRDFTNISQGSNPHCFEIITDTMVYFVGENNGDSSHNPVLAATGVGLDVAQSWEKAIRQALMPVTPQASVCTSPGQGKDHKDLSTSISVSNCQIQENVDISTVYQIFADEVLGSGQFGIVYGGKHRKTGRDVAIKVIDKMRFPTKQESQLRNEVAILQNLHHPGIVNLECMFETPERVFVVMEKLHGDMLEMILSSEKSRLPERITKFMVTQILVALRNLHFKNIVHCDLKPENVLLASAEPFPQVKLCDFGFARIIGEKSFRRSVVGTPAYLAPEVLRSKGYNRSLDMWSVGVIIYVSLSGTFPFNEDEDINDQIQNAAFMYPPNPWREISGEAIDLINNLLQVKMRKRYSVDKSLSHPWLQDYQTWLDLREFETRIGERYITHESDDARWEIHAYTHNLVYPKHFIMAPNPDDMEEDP
On the procedure:
as §1, §2

A further assay addresses T12, YANK3 (Homo sapiens, UniProt Q86UX6).
T12 construct: purchased Ambit Biosciences (KINOMEscan)
On the procedure:
as §1, §2

The results in this text go back to PMC3445516 (PLoS ONE, 2012).

Where two headings read alike, the source gives them in different places.

T9 sequence (Q5VT25 whole entry): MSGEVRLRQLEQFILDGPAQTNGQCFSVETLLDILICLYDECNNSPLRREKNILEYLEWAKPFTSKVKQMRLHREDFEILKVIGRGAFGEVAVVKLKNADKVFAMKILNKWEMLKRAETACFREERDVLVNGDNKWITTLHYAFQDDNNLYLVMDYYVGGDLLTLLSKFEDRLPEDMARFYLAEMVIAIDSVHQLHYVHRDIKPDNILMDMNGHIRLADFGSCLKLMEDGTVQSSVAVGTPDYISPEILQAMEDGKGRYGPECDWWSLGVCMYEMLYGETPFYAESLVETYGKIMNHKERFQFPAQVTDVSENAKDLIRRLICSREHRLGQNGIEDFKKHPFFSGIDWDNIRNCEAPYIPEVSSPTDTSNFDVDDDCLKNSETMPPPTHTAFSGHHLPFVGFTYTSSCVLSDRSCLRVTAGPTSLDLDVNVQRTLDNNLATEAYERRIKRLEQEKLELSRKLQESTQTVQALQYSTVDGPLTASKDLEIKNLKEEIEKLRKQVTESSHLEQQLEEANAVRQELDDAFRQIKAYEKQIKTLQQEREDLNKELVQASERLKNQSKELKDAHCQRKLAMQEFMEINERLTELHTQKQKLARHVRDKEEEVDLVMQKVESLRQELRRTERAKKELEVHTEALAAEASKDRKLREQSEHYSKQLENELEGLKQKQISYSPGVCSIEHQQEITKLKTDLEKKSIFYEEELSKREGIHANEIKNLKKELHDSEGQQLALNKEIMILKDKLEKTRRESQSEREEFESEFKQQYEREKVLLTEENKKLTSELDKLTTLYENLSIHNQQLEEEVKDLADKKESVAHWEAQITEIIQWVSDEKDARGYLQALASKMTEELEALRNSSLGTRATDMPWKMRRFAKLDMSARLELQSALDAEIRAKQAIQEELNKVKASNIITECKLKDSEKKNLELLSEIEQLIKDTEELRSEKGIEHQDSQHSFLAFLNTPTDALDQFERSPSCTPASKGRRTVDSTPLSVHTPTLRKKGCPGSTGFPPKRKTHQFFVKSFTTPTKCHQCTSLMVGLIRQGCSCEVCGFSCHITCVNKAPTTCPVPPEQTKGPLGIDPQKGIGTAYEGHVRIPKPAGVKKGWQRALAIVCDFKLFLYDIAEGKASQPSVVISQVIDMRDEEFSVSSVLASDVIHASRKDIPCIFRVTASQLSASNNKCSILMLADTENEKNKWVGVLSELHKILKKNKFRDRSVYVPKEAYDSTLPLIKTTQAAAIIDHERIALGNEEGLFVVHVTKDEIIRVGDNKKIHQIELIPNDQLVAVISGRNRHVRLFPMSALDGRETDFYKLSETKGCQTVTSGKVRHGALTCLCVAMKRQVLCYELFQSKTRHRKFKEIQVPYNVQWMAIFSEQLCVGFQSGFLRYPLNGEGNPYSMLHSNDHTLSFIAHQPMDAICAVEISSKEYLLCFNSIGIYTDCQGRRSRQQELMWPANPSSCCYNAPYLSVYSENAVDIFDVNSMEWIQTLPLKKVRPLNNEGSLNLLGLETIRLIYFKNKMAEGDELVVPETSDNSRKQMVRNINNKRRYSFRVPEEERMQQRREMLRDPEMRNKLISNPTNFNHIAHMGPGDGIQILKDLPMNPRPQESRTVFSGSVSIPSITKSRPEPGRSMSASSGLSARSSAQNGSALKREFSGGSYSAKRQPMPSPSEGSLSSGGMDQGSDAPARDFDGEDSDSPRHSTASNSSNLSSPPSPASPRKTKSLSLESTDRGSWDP
T8 sequence (P45984 whole entry): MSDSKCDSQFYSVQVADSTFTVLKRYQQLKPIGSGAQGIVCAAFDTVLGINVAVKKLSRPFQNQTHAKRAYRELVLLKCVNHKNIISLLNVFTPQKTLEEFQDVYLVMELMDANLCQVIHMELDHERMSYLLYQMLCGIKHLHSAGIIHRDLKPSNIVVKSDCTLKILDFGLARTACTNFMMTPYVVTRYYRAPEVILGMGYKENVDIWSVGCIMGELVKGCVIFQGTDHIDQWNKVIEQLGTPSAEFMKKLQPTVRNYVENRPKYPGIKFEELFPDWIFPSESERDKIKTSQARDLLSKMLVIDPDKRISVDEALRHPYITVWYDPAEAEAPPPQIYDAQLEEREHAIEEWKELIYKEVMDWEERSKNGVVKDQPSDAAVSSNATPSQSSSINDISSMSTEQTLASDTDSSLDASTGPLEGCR
T4 sequence (Q9Y6M4 whole entry): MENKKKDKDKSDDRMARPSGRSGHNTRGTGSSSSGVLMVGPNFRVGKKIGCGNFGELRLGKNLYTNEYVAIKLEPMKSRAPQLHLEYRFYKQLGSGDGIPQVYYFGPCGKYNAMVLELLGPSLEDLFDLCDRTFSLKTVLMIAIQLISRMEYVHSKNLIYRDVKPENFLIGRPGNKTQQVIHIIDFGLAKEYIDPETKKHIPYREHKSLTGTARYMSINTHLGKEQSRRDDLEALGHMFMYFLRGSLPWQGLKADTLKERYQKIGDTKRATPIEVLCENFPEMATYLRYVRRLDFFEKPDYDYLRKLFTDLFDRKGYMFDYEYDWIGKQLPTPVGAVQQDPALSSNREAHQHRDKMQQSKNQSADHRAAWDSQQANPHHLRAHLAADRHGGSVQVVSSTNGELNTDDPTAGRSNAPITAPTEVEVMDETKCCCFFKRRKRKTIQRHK
T7 sequence (P45983 whole entry): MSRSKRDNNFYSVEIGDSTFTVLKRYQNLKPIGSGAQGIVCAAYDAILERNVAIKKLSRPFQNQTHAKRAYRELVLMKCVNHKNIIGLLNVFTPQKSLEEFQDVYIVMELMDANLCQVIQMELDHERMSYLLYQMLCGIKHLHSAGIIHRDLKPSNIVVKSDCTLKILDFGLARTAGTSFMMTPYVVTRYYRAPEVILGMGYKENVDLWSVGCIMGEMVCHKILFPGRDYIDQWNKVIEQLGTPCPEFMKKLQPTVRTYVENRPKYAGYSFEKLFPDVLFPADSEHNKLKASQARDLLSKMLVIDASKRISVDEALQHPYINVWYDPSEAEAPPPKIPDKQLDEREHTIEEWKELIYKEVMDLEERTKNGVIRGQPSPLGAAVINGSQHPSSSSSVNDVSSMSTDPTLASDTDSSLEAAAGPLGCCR
T12 sequence (Q86UX6 whole entry): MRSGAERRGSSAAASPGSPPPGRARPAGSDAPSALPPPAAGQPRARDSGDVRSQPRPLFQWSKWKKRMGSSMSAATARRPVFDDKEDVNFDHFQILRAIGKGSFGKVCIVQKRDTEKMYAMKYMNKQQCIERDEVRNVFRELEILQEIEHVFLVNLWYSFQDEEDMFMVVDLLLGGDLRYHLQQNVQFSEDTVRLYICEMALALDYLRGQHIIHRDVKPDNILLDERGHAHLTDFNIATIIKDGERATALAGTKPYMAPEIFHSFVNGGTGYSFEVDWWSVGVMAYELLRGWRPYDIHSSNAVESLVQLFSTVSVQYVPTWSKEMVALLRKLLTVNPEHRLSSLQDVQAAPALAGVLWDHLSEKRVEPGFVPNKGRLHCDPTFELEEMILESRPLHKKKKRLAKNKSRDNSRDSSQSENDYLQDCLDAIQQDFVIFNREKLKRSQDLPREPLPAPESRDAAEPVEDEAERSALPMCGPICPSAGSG
T10 sequence (Q04759 whole entry): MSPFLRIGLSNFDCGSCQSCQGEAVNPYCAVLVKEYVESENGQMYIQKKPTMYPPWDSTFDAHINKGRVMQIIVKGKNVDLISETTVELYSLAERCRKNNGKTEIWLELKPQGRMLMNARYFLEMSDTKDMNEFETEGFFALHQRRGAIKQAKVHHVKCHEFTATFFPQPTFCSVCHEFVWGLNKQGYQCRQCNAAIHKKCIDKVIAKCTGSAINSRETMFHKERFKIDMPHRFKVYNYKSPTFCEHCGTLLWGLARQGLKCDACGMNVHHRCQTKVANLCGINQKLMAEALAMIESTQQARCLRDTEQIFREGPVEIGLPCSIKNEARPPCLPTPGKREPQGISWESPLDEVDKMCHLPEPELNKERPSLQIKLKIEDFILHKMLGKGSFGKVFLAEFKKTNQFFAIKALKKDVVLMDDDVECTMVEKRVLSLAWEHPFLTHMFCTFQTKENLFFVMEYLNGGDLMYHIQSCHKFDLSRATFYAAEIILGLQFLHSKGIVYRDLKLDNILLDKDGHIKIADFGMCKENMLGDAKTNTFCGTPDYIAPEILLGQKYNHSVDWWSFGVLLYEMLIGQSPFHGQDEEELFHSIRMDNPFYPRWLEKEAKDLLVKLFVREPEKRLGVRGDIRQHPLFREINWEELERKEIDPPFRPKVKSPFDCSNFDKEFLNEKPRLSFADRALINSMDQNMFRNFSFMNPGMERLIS
T1 sequence (Q96NX5 whole entry): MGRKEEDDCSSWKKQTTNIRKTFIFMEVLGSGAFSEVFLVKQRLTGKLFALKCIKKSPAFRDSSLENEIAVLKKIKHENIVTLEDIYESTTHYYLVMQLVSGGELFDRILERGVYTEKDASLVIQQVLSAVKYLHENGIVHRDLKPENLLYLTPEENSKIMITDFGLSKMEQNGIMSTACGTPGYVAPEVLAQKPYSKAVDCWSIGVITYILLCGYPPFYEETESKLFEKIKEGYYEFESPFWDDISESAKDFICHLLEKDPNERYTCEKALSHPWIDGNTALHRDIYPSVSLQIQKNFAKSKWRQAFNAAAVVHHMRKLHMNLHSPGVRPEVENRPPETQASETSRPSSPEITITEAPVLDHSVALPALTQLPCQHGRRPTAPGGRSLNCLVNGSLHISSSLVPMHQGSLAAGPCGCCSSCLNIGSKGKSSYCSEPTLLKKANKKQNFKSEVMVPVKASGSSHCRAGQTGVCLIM

Compound `Fc1ccc(-c2c(-c3ccncc3)[nH]c3nccnc23)cc1` [Compound 122] showed a competition on CAMKIγ of less than 50%. Further, the inhibition at 10 µM on CSNK1D (CSNK1D, 10 µM, read-out: % Competition) is 97%; at CSNK1E (CSNK1E, 10 µM, read-out: % Competition) it was 100%; on DYRK1B (DYRK1B, 10 µM, read-out: % Competition) it was 79%; at EPHB3 (EPHB3, 10 µM, read-out: % Competition) it was 82%; on MRCKA (MRCKA, 10 µM, read-out: % Competition) it was 99%; on PRKCQ (PRKCQ (PKC θ), 10 µM, read-out: % Competition) it was 78%. Further, the inhibition at 10 µM is 98% on PRKD3 (PRKD3 (PKD3), 10 µM, read-out: % Competition) and 67% on YANK3 (YANK3, 10 µM, read-out: % Competition). For the same compound, the figures for the “% Competition” value at CSNK1G3, on JNK1 and on JNK2 were 86%, 100% and 100%, respectively.

For the compound `Fc1ccc(-c2c(-c3ccncc3)[nH]c3nccnc23)cc1` [RO1155697-000-005], the inhibition at 10 µM on CAMKIγ (CAMK1G, compound concentration 10 uM, read-out: Percent Competition) is less than 50%; at CSNK1D (CSNK1D, compound concentration 10 uM, read-out: Percent Competition), 97%; on CSNK1E (CSNK1E, compound concentration 10 uM, read-out: Percent Competition) it was 100%; at DYRK1B (DYRK1B, compound concentration 10 uM, read-out: Percent Competition), 79%; at EPHB3 (EPHB3, compound concentration 10 uM, read-out: Percent Competition), 82%; on MRCKA (MRCKA, compound concentration 10 uM, read-out: Percent Competition), 99%. Further, the inhibition at 10 µM at PRKCQ (PRKCQ, compound concentration 10 uM, read-out: Percent Competition) stood at 78%; on PRKD3 (PRKD3, compound concentration 10 uM, read-out: Percent Competition), 98%; at YANK3 (YANK3, compound concentration 10 uM, read-out: Percent Competition), 67%. In addition, the “Percent Competition” value on CSNK1G3 (compound concentration 10 uM) is 86%; at JNK1 (compound concentration 10 uM), 100%; on JNK2 (compound concentration 10 uM), 100%.

In turn, `CC(O)CNc1cc(-c2[nH]c3cccnc3c2-c2ccc(F)cc2)ccn1` (stereo not shown) [Compound 140] yielded a competition on CAMKIγ of less than 50%. Further, the inhibition at 10 µM on CSNK1D (read-out: % Competition) is 96%; on CSNK1E (read-out: % Competition, CSNK1E, 10 µM), 99 to 100%; at DYRK1B (read-out: % Competition), less than 50%; at EPHB3 (read-out: % Competition) it was less than 50%; at MRCKA (read-out: % Competition), less than 50%; on PRKCQ (read-out: % Competition) it was less than 50%. For the same compound, the values for the inhibition at 10 µM on PRKD3 (read-out: % Competition) and at YANK3 (read-out: % Competition) were 96% and less than 50%, respectively. Moreover, the “% Competition” value at CSNK1G3 is listed as 91%; at JNK1, 100%; on JNK2 it was 100%; on PRKCQ (PRKCQ (PKC θ), 10 µM), less than 50%.
